# Patent publication US20250186541A1, “DLL3 TARGETING PEPTIDES AND CONSTRUCTS THEREOF” (MARIANA ONCOLOGY INC., priority 2023, published 2025)
# pKd: −log10 of the molar value. Bridge positions count the residues as written; N and C are the ends. Square brackets hold non-standard residues; d marks the D form. Peptide text beside a SMILES is read from it. * marks the point of attachment. DOTA = O=C(O)CN1CCN(CC(=O)O)CCN(CC(=O)*)CCN(CC(=O)O)CC1; Pro(trans-4-F) = O=C(O)[C@@H]1C[C@@H](F)CN1; Bip = N[C@@H](Cc1ccc(-c2ccccc2)cc1)C(=O)O; Pro(cis-4-F) = O=C(O)[C@@H]1C[C@H](F)CN1; Phe(3-F) = N[C@@H](Cc1cccc(F)c1)C(=O)O; 1Nal = N[C@@H](Cc1cccc2ccccc12)C(=O)O; 2Nal = N[C@@H](Cc1ccc2ccccc2c1)C(=O)O; Hyp = O=C(O)[C@@H]1C[C@@H](O)CN1; αMeD = C[C@](N)(CC(=O)O)C(=O)O; Pip = O=C(O)[C@@H]1CCCCN1; hSer = N[C@@H](CCO)C(=O)O; Carboxymethyl = O=C(O)C*; Ahx = NCCCCCC(=O)O
# Target: T1, human DLL3 (Homo sapiens, UniProt Q9NYJ7)
# T1 construct: biotin (biotinylated)
# T1 sequence (Q9NYJ7 27-618): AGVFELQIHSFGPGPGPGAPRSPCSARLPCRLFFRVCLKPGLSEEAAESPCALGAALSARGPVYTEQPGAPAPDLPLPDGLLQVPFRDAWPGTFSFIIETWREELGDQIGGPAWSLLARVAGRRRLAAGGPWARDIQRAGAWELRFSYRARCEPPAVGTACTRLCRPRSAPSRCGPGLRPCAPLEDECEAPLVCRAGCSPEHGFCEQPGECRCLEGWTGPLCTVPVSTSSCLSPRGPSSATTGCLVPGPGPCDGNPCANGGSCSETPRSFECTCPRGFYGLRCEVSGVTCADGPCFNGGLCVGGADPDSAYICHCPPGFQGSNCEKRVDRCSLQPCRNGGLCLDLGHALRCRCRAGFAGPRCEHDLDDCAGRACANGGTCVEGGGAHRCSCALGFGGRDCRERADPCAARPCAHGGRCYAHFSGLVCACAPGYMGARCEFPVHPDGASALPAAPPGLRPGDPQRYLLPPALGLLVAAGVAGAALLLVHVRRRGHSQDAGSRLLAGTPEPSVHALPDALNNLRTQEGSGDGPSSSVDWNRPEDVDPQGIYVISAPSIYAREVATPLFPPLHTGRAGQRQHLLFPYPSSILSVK
# Test: Affinity determination by Surface Plasmon Resonance (SPR), Biacore, 1:1 binding model
# Conditions: biotinylated human DLL3 on streptavidin chip, 25° C.; NB = nonbinding
# Summary of the method: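 SPR with biotinylated human DLL3 captured on a streptavidin chip, with a reference surface subtracted. Samples were injected at several concentrations at 100 μL/min in phosphate buffer with 137 mM NaCl, 2.7 mM KCl, 0.05% P20 and 2% DMSO. Kinetic and affinity constants came from a 1:1 binding fit.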
row,Compound,pKd
1,"CC(C)C[C@@H]1NC(=O)[C@H](Cc2c[nH]c3ccccc23)NC(=O)[C@@H](NC(=O)[C@H](CC(=O)O)NC(=O)[C@H](CO)NC(=O)CCCCCNC(=O)CN2CCN(CC(=O)O)CCN(CC(=O)O)CCN(CC(=O)O)CC2)CSSC[C@@H](C(=O)N2CCC[C@H]2C(=O)N[C@@H](Cc2cccc(F)c2)C(=O)N[C@@H](CC(=O)O)C(N)=O)NC(=O)[C@H](CC(N)=O)NC(=O)[C@H](Cc2c[nH]c3ccccc23)NC(=O)[C@H](CCC(N)=O)NC1=O [compound 36, DOTA-Ahx-S-D-C(3)-W-L-Q-W-N-C(3)-P-(3Fluoro-F)-D-CONH2] ({DOTA-Ahx}-SDCWLQWNCP[Phe(3-F)]D-NH2; disulfide 3-9)",7.80
2,"CC(C)C[C@@H]1NC(=O)[C@H](Cc2c[nH]c3ccccc23)NC(=O)[C@@H](NC(=O)[C@H](CC(=O)O)NC(=O)[C@H](CO)NC(=O)CCCCCNC(=O)CN2CCN(CC(=O)O)CCN(CC(=O)O)CCN(CC(=O)O)CC2)CSSC[C@@H](C(=O)N2CCC[C@H]2C(=O)N[C@@H](Cc2ccc(OCC(=O)O)cc2)C(=O)N[C@@H](CC(=O)O)C(N)=O)NC(=O)[C@H](CC(N)=O)NC(=O)[C@H](Cc2c[nH]c3ccccc23)NC(=O)[C@H](CCC(N)=O)NC1=O [compound 37, DOTA-Ahx-S-D-C(3)-W-L-Q-W-N-C(3)-P-(4-CMF)-D-CONH2] ({DOTA-Ahx}-SDCWLQWNCPY(Carboxymethyl)D-NH2; disulfide 3-9)",< 7.00
3,"CC(C)C[C@@H]1NC(=O)[C@H](Cc2c[nH]c3ccccc23)NC(=O)[C@@H](NC(=O)[C@H](CC(=O)O)NC(=O)[C@H](CO)NC(=O)CCCCCNC(=O)CN2CCN(CC(=O)O)CCN(CC(=O)O)CCN(CC(=O)O)CC2)CSSC[C@@H](C(=O)N2CCC[C@H]2C(=O)N[C@@H](Cc2ccc(-c3ccccc3)cc2)C(=O)N[C@@H](CC(=O)O)C(N)=O)NC(=O)[C@H](CC(N)=O)NC(=O)[C@H](Cc2c[nH]c3ccccc23)NC(=O)[C@H](CCC(N)=O)NC1=O [compound 38, DOTA-Ahx-S-D-C(3)-W-L-Q-W-N-C(3)-P-(BIP)-D-CONH2] ({DOTA-Ahx}-SDCWLQWNCP[Bip]D-NH2; disulfide 3-9)",< 6.52
4,"CC(C)C[C@@H]1NC(=O)[C@H](Cc2c[nH]c3ccccc23)NC(=O)[C@@H](NC(=O)[C@H](CC(=O)O)NC(=O)[C@H](CO)NC(=O)CCCCCNC(=O)CN2CCN(CC(=O)O)CCN(CC(=O)O)CCN(CC(=O)O)CC2)CSSC[C@@H](C(=O)N2CCC[C@H]2C(=O)N[C@@H](Cc2cccc3ccccc23)C(=O)N[C@@H](CC(=O)O)C(N)=O)NC(=O)[C@H](CC(N)=O)NC(=O)[C@H](Cc2c[nH]c3ccccc23)NC(=O)[C@H](CCC(N)=O)NC1=O [compound 39, DOTA-Ahx-S-D-C(3)-W-L-Q-W-N-C(3)-P-(1Nal)-D-CONH2] ({DOTA-Ahx}-SDCWLQWNCP[1Nal]D-NH2; disulfide 3-9)",< 7.00
5,"CC(C)C[C@@H]1NC(=O)[C@H](Cc2c[nH]c3ccccc23)NC(=O)[C@@H](NC(=O)[C@H](CC(=O)O)NC(=O)[C@H](CO)NC(=O)CCCCCNC(=O)CN2CCN(CC(=O)O)CCN(CC(=O)O)CCN(CC(=O)O)CC2)CSSC[C@@H](C(=O)N2CCC[C@H]2C(=O)N[C@@H](Cc2ccc3ccccc3c2)C(=O)N[C@@H](CC(=O)O)C(N)=O)NC(=O)[C@H](CC(N)=O)NC(=O)[C@H](Cc2c[nH]c3ccccc23)NC(=O)[C@H](CCC(N)=O)NC1=O [compound 40, DOTA-Ahx-S-D-C(3)-W-L-Q-W-N-C(3)-P-(2Nal)-D-CONH2] ({DOTA-Ahx}-SDCWLQWNCP[2Nal]D-NH2; disulfide 3-9)",< 6.52
6,"CSCC[C@H](NC(C)=O)C(=O)N[C@@H](CO)C(=O)N[C@@H](CC(=O)O)C(=O)N[C@H]1CSSC[C@@H](C(=O)N2C[C@H](F)C[C@H]2C(=O)N[C@@H](Cc2ccccc2)C(=O)N[C@@H](CC(=O)O)C(=O)N[C@H](CCCCNC(=O)CN2CCN(CC(=O)O)CCN(CC(=O)O)CCN(CC(=O)O)CC2)C(N)=O)NC(=O)[C@H](CC(N)=O)NC(=O)[C@H](Cc2c[nH]c3ccccc23)NC(=O)[C@H](CCC(N)=O)NC(=O)[C@H](CC(C)C)NC(=O)[C@H](Cc2c[nH]c3ccccc23)NC1=O [compound 42, Ac-M-S-D-C(3)-W-L-Q-W-N-C(3)-(trans4Fluoro-P)-F-D-D-Lys(DOTA)-CONH2] (Ac-MSDCWLQWNC[Pro(trans-4-F)]FD[dK](DOTA)-NH2; disulfide 4-10)",8.00
7,"CSCC[C@H](NC(C)=O)C(=O)N[C@@H](CO)C(=O)N[C@@H](CC(=O)O)C(=O)N[C@H]1CSSC[C@@H](C(=O)N2C[C@@H](F)C[C@H]2C(=O)N[C@@H](Cc2ccccc2)C(=O)N[C@@H](CC(=O)O)C(=O)N[C@H](CCCCNC(=O)CN2CCN(CC(=O)O)CCN(CC(=O)O)CCN(CC(=O)O)CC2)C(N)=O)NC(=O)[C@H](CC(N)=O)NC(=O)[C@H](Cc2c[nH]c3ccccc23)NC(=O)[C@H](CCC(N)=O)NC(=O)[C@H](CC(C)C)NC(=O)[C@H](Cc2c[nH]c3ccccc23)NC1=O [compound 43, Ac-M-S-D-C(3)-W-L-Q-W-N-C(3)-(cis4Fluoro-P)-F-D-D-Lys(DOTA)-CONH2] (Ac-MSDCWLQWNC[Pro(cis-4-F)]FD[dK](DOTA)-NH2; disulfide 4-10)",7.55
8,"CSCC[C@H](NC(C)=O)C(=O)N[C@@H](CO)C(=O)N[C@@H](CC(=O)O)C(=O)N[C@H]1CSSC[C@@H](C(=O)N2C[C@H](O)C[C@H]2C(=O)N[C@@H](Cc2ccccc2)C(=O)N[C@@H](CC(=O)O)C(=O)N[C@H](CCCCNC(=O)CN2CCN(CC(=O)O)CCN(CC(=O)O)CCN(CC(=O)O)CC2)C(N)=O)NC(=O)[C@H](CC(N)=O)NC(=O)[C@H](Cc2c[nH]c3ccccc23)NC(=O)[C@H](CCC(N)=O)NC(=O)[C@H](CC(C)C)NC(=O)[C@H](Cc2c[nH]c3ccccc23)NC1=O [compound 44, Ac-M-S-D-C(3)-W-L-Q-W-N-C(3)-(trans4OH-P)-F-D-D-Lys(DOTA)-CONH2] (Ac-MSDCWLQWNC[Hyp]FD[dK](DOTA)-NH2; disulfide 4-10)",7.59
9,"CSCC[C@H](NC(C)=O)C(=O)N[C@@H](CO)C(=O)N[C@@H](CC(=O)O)C(=O)N[C@H]1CSSC[C@@H](C(=O)N2CCCC[C@H]2C(=O)N[C@@H](Cc2ccccc2)C(=O)N[C@@H](CC(=O)O)C(=O)N[C@H](CCCCNC(=O)CN2CCN(CC(=O)O)CCN(CC(=O)O)CCN(CC(=O)O)CC2)C(N)=O)NC(=O)[C@H](CC(N)=O)NC(=O)[C@H](Cc2c[nH]c3ccccc23)NC(=O)[C@H](CCC(N)=O)NC(=O)[C@H](CC(C)C)NC(=O)[C@H](Cc2c[nH]c3ccccc23)NC1=O [compound 47, Ac-M-S-D-C(3)-W-L-Q-W-N-C(3)-(Pip)-F-D-D-Lys(DOTA)-CONH2] (Ac-MSDCWLQWNC[Pip]FD[dK](DOTA)-NH2; disulfide 4-10)",7.59
10,"CSCC[C@H](NC(C)=O)C(=O)N[C@@H](CO)C(=O)N[C@@H](CC(=O)O)C(=O)N[C@H]1CSSC[C@@H](C(=O)N2CCC[C@H]2C(=O)N[C@@H](Cc2ccccc2)C(=O)N[C@@](C)(CC(=O)O)C(=O)N[C@H](CCCCNC(=O)CN2CCN(CC(=O)O)CCN(CC(=O)O)CCN(CC(=O)O)CC2)C(N)=O)NC(=O)[C@H](CC(N)=O)NC(=O)[C@H](Cc2c[nH]c3ccccc23)NC(=O)[C@H](CCC(N)=O)NC(=O)[C@H](CC(C)C)NC(=O)[C@H](Cc2c[nH]c3ccccc23)NC1=O [compound 53, Ac-M-S-D-C(3)-W-L-Q-W-N-C(3)-P-F-(aMeD)-D-Lys(DOTA)-CONH2] (Ac-MSDCWLQWNCPF[αMeD][dK](DOTA)-NH2; disulfide 4-10)",< 6.52
11,"CSCC[C@H](NC(C)=O)C(=O)N[C@@H](CO)C(=O)N[C@@H](CC(=O)O)C(=O)N[C@H]1CSSC[C@@H](C(=O)N2CCC[C@H]2C(=O)N[C@@H](Cc2ccccc2)C(=O)N[C@@H](CCO)C(=O)N[C@H](CCCCNC(=O)CN2CCN(CC(=O)O)CCN(CC(=O)O)CCN(CC(=O)O)CC2)C(N)=O)NC(=O)[C@H](CC(N)=O)NC(=O)[C@H](Cc2c[nH]c3ccccc23)NC(=O)[C@H](CCC(N)=O)NC(=O)[C@H](CC(C)C)NC(=O)[C@H](Cc2c[nH]c3ccccc23)NC1=O [compound 54, Ac-M-S-D-C(3)-W-L-Q-W-N-C(3)-P-F-(hSer)-D-Lys(DOTA)-CONH2] (Ac-MSDCWLQWNCPF[hSer][dK](DOTA)-NH2; disulfide 4-10)",< 6.52
12,"CSCC[C@H](NC(C)=O)C(=O)N[C@@H](CO)C(=O)N[C@@H](CC(=O)O)C(=O)N[C@H]1CSSC[C@@H](C(=O)N2CCC[C@H]2C(=O)N[C@@H](Cc2ccccc2)C(=O)N[C@@H](CC(=O)O)C(=O)N[C@H](CCCCNC(=O)CN2CCN(CC(=O)O)CCN(CC(=O)O)CCN(CC(=O)O)CC2)C(N)=O)NC(=O)[C@H](CC(N)=O)NC(=O)[C@H](Cc2c[nH]c3ccccc23)NC(=O)[C@H](CCC(N)=O)NC(=O)[C@H](CC(C)C)NC(=O)[C@H](Cc2ccc(-c3ccccc3)cc2)NC1=O [compound 55, Ac-M-S-D-C(3)-(BIP)-L-Q-W-N-C(3)-P-F-D-D-Lys(DOTA)-CONH2] (Ac-MSDC[Bip]LQWNCPFD[dK](DOTA)-NH2; disulfide 4-10)",< 6.52
